Activity calls are given as the source filed them. The calls are words filed in the database; no cut-off is given here.
Tests used:
[1] = system: MCF7; assay: Induction of endoplasmic reticulum stress effect in human MCF7 cells assessed as change in CHOP level at 10 uM incubated for 24 hrs by immunofluorescence based analysis; assay type: functional, cell-based
[2] = system: MCF7; assay: Induction of endoplasmic reticulum stress effect in human MCF7 cells assessed as change in ATF4 level at 10 uM incubated for 3 to 24 hrs by Western blot analysis; assay type: functional, cell-based; conditions: time 3-24 hrs
[3] = system: MCF7; assay: Induction of endoplasmic reticulum stress effect in human MCF7 cells assessed as change in pEIF-2alpha level at 10 uM incubated for 3 to 24 hrs by Western blot analysis; assay type: functional, cell-based; conditions: time 3-24 hrs
[4] = Toxicity in nude mouse model xenografted with human MCF7 cells assessed as morphological change in heart at 60 mg/kg, po administered daily via gavage for 30 days by H and E staining based analysis; assay type: organism-based; conditions: in vivo, 720 h, time 30 day
[5] = system: MCF7; assay: Induction of endoplasmic reticulum stress effect in human MCF7 cells assessed as change in calnexin level at 10 uM incubated for 3 to 24 hrs by Western blot analysis; assay type: functional, cell-based; conditions: time 3-24 hrs
[6] = system: MCF7; assay: Induction of immunogenic cell death in human MCF7 cells assessed as CRT translocation at 10 uM by Western blot analysis; assay type: functional, cell-based
[7] = MRT (0 to infinity) in rat at 20 mg/kg, po measured for 1 to 24 hrs by LC-MS analysis; assay type: ADME, organism-based; conditions: in vivo, time 1-24 hrs
[8] = biological target: T1, Estrogen receptor (Homo sapiens) (UniProt P03372); assay: Induction of estrogen receptor degradation in human MCF7 cells at 10 uM by fluorescence microscopy; assay type: cell-based
T1 sequence (whole entry): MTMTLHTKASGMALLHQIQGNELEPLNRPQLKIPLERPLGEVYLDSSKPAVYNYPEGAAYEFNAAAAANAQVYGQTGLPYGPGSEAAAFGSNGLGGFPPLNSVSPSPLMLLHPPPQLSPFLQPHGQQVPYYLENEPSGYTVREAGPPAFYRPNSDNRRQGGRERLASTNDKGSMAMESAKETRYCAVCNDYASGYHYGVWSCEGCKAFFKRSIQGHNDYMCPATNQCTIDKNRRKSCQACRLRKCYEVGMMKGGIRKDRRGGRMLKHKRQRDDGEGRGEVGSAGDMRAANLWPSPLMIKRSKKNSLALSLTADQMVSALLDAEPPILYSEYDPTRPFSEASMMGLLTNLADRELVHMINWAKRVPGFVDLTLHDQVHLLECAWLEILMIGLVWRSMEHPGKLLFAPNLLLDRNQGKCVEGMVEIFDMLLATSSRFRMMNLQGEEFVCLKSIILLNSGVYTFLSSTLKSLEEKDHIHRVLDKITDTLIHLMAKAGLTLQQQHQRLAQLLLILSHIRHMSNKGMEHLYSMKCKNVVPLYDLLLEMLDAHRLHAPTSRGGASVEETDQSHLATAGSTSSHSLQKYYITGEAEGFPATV

[9] = MRT (0 to t) in rat at 5 mg/kg, iv measured for 1 to 24 hrs by LC-MS analysis; assay type: ADME, organism-based; conditions: in vivo, time 1-24 hrs
[10] = system: Uterus; assay: Effect on immature Sprague-Dawley rat uterus assessed as reduction in uterine wet weight at 60 mg/kg, po qd for 2 days by H and E staining based analysis; assay type: functional, organism-based; conditions: time 2.0 day
[11] = Half life in rat at 5 mg/kg, iv measured for 1 to 24 hrs by LC-MS analysis; assay type: ADME, organism-based; conditions: in vivo, time 1-24 hrs
[12] = Toxicity in nude mouse model xenografted with human MCF7 cells assessed as morphological change in liver at 60 mg/kg, po administered daily via gavage for 30 days by H and E staining based analysis; assay type: organism-based; conditions: in vivo, 720 h, time 30 day
[13] = biological target: T1, Estrogen receptor (Homo sapiens); assay: Induction of estrogen receptor degradation in MG-132-treated human MCF7 cells at 10 uM incubated for 4 to 6 hrs by Western blot analysis; assay type: cell-based; conditions: time 4-6 hrs
[14] = system: MCF7; assay: Induction of endoplasmic reticulum stress effect in human MCF7 cells assessed as change in calnexin level at 10 uM incubated for 24 hrs by immunofluorescence based analysis; assay type: functional, cell-based
[15] = system: MCF7; assay: Antitumor activity against human MCF7 cells xenografted in nude mouse model at 60 mg/kg, po administered daily via gavage for 30 days in presence of ribociclib; assay type: functional, organism-based; conditions: time 30.0 day
[16] = system: MCF7; assay: Induction of cell cycle arrest at G0/G1 phase in human MCF7 cells at 10 uM incubated for 24 hrs by PI/RNase staining based flow cytometry (reference value: 53.5 +/- 1.96 %); assay type: functional
[17] = biological target: T1, Estrogen receptor (Homo sapiens); assay: Induction of estrogen receptor degradation in human MCF7 cells expressing ERE-luciferase at 10 uM incubated for 24 hrs by luminescence based analysis; assay type: cell-based
[18] = biological target: T1, Estrogen receptor (Homo sapiens); assay: Induction of estrogen receptor degradation in estradiol-stimulated human MCF7 cells assessed as decrease in TFF1 mRNA level incubated for 24 hrs by RT-qPCR analysis; assay type: cell-based; conditions: dose 1-10 µM
[19] = system: MCF7; assay: Induction of ROS production in human MCF7 cells incubated for 3 to 24 hrs by immunofluorescence analysis; assay type: functional, cell-based; conditions: time 3-24 hrs
[20] = Apparent volume of distribution in rat at 5 mg/kg, iv measured for 1 to 24 hrs by LC-MS analysis; assay type: ADME, organism-based; conditions: in vivo, time 1-24 hrs, read-out: Vz
[21] = system: MCF7; assay: Antitumor activity against human MCF7 cells xenografted in nude mouse model assessed as reduction in PR level at 60 mg/kg, po administered daily via gavage for 30 days in presence of ribociclib by IHC analysis; assay type: functional, organism-based; conditions: time 30.0 day
[22] = system: MCF7; assay: Induction of endoplasmic reticulum stress effect in human MCF7 cells assessed as change in GRP78 level at 10 uM incubated for 3 to 24 hrs by Western blot analysis; assay type: functional, cell-based; conditions: time 3-24 hrs
[23] = AUC (0 to t) in rat at 20 mg/kg, po measured for 1 to 24 hrs by LC-MS analysis; assay type: ADME, organism-based; conditions: in vivo, time 1-24 hrs
[24] = Oral bioavailability in rat at 20 mg/kg measured for 1 to 24 hrs by LC-MS analysis; assay type: ADME, organism-based; conditions: in vivo, time 1-24 hrs
[25] = system: MCF7; assay: Induction of immunogenic cell death in human MCF7 cells assessed as ATP release […] at 10 uM; assay type: functional, cell-based
[26] = Tmax in rat at 20 mg/kg, po measured for 1 to 24 hrs by LC-MS analysis; assay type: ADME, organism-based; conditions: in vivo, time 1-24 hrs
[27] = MRT (0 to infinity) in rat at 5 mg/kg, iv measured for 1 to 24 hrs by LC-MS analysis; assay type: ADME, organism-based; conditions: in vivo, time 1-24 hrs
[28] = system: MCF7; assay: Antitumor activity against human MCF7 cells xenografted in nude mouse model assessed as reduction in ER level at 60 mg/kg, po administered daily via gavage for 30 days in presence of ribociclib by IHC analysis; assay type: functional, organism-based; conditions: time 30.0 day
[29] = AUC (0 to infinity) in rat at 5 mg/kg, iv measured for 1 to 24 hrs by LC-MS analysis; assay type: ADME, organism-based; conditions: in vivo, time 1-24 hrs
[30] = biological target: T1, Estrogen receptor (Homo sapiens); assay: Induction of estrogen receptor degradation in human MCF7 cells incubated for 24 hrs by Western blot analysis; assay type: cell-based; conditions: dose 0.001-10 µM
[31] = AUC (0 to t) in rat at 5 mg/kg, iv measured for 1 to 24 hrs by LC-MS analysis; assay type: ADME, organism-based; conditions: in vivo, time 1-24 hrs
[32] = system: MCF7; assay: Induction of immunogenic cell death in human MCF7 cells assessed as HSP90 exposure at 10 uM by Western blot analysis; assay type: functional, cell-based
[33] = system: Ishikawa; assay: Antiproliferative activity against human Ishikawa cells at 20 uM incubated for 3 days by MTT assay relative to control; assay type: functional; conditions: 72 h, time 3 day

MRT inf [7]: 160 min | Activity [8]: Active | MRT last [9]: 7.2 min | half-life [11]: 51.8 min | Activity [13]: inactive | Activity [17]: Active | Activity [18]: Dose-Dependent Effect | Vd [20]: 2 L/kg | AUC(0-t) [23]: 628 ng·h/mL | bioavailability [24]: 5.32% | Tmax [26]: 15 min | MRT inf [27]: 7.56 min | AUC(0-inf) [29]: 3050 ng·h/mL | Activity [30]: Dose-Dependent Effect | AUC(0-t) [31]: 3050 ng·h/mL
SMILES: CCc1ccccc1C(=O)c1cnc2cc(O)ccc2c1Oc1ccc(/C=C/C(=O)O)cc1
Activity [1]: Active | Activity [2]: Active | Activity [3]: Active | Activity [4]: Non-Toxic | Activity [5]: Active | Activity [6]: Active | Activity [10]: inactive | Activity [12]: Non-Toxic | Activity [14]: Active | Activity [15]: Active | Activity [16]: 59.7% | Activity [19]: inactive | Activity [21]: Active | Activity [22]: Active | Activity [25]: Active | Activity [28]: Active | Activity [32]: Active | inhibition at 20 µM [33]: 14%
